# Results as given in ChEMBL document CHEMBL1201862, “PubChem BioAssay data set” (2004).
#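 96-well plates; 48 h exposure; 5 concentrations. Endpoints by linear interpolation between flanking doses. Not reached: highest tested concentration assigned. Here, GI50 denotes the concentration required for 50% inhibition of growth.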 Activity calls are given as the source filed them. Rule as the data show it: active = GI50 up to about 1.1 µM and inactive = higher.
# Legend:
# Test in all cases: DTP human tumour cell line panel, 48 h
# M14 = tested on: M14
# HL-60 = tested on: HL-60
# SF-268 = tested on: SF-268
# Malme-3M = tested on: Malme-3M
# SN12C = tested on: SN12C
# K562 = tested on: K562
# MCF7 = tested on: MCF7
# COLO 205 = tested on: COLO 205
# NCI-H23 = tested on: NCI-H23
# UACC-62 = tested on: UACC-62
# LOX IMVI = tested on: LOX IMVI
# DU-145 = tested on: DU-145
# OVCAR-8 = tested on: OVCAR-8
# MDA-N = tested on: MDA-N
# SF-295 = tested on: SF-295
# OVCAR-3 = tested on: OVCAR-3
# T47D = tested on: T47D
# HCC 2998 = tested on: HCC 2998
# NCI-H460 = tested on: NCI-H460
Compound,GI50 (M14),GI50 (HL-60),GI50 (SF-268),GI50 (Malme-3M),GI50 (SN12C),GI50 (K562),GI50 (MCF7),GI50 (COLO 205),GI50 (NCI-H23),GI50 (UACC-62),GI50 (LOX IMVI),GI50 (DU-145),GI50 (OVCAR-8),GI50 (MDA-N),GI50 (SF-295),GI50 (OVCAR-3),GI50 (T47D),GI50 (HCC 2998),GI50 (NCI-H460)
Cc1ccc2c3c1O[C@H]1c4[nH]c5ccccc5c4C[C@@]4(O)[C@@H](C2)N(C)CC[C@]314,16.2 µM (inactive),14.6 µM (inactive),17.1 µM (inactive),13.9 µM (inactive),18.2 µM (inactive),16.9 µM (inactive),16 µM (inactive),14.4 µM (inactive),18.4 µM (inactive),16.6 µM (inactive),15.4 µM (inactive),19.8 µM (inactive),18.6 µM (inactive),17.8 µM (inactive),–,–,–,–,–
CC(CN(C)C)C(=O)c1ccccc1C(=O)O (stereo unspecified),26.4 µM (inactive),22.7 µM (inactive),14.1 µM (inactive),22 µM (inactive),25.9 µM (inactive),30.9 µM (inactive),35.6 µM (inactive),25.4 µM (inactive),26.5 µM (inactive),20.1 µM (inactive),33.4 µM (inactive),30.2 µM (inactive),30.3 µM (inactive),29.5 µM (inactive),41.9 µM (inactive),14.7 µM (inactive),37.1 µM (inactive),–,–
C[C@]12C[C@H](c3ccccc3)Nc3ccccc3N1C(c1ccccc1)=NO2,49.2 µM (inactive),74.6 µM (inactive),> 100 µM (inactive),44.3 µM (inactive),> 100 µM (inactive),33.8 µM (inactive),52.6 µM (inactive),78.7 µM (inactive),62.1 µM (inactive),85.1 µM (inactive),–,> 100 µM (inactive),85.7 µM (inactive),74.1 µM (inactive),22.5 µM (inactive),28.5 µM (inactive),–,> 100 µM (inactive),49.7 µM (inactive)
COC12OC3(C4OC41)C(C(=O)O[C@H]3CO[Si](C)(C)C(C)(C)C)C2S(=O)(=O)c1ccccc1 (stereo partly specified),–,< 0.01 µM (active),–,> 41.8 µM (inactive),> 4.65 µM (inactive),1.6 µM (inactive),4.1 µM (inactive),21.9 µM (inactive),> 100 µM (inactive),> 4.65 µM (inactive),–,> 4.65 µM (inactive),4.65 µM (inactive),–,> 25.5 µM (inactive),> 100 µM (inactive),> 83.9 µM (inactive),> 100 µM (inactive),> 62.1 µM (inactive)
CN(C(=O)[C@@H](NC(=O)OC(C)(C)C)c1ccccc1)[C@H]1CCCC[C@@H]1N1CCCC1,> 100 µM (inactive),> 100 µM (inactive),> 100 µM (inactive),–,> 100 µM (inactive),> 100 µM (inactive),> 100 µM (inactive),> 100 µM (inactive),> 100 µM (inactive),> 100 µM (inactive),–,> 100 µM (inactive),> 100 µM (inactive),–,> 100 µM (inactive),> 100 µM (inactive),> 100 µM (inactive),–,–
COC(=O)C1=C(O)C(C(=O)OC)[C@]2(O)[C@H](C(=O)OC)[C@H]1C[C@@H](c1ccc(OC)cc1)[C@H]2C(=O)OC (stereo partly specified),23.8 µM (inactive),–,19.6 µM (inactive),17.7 µM (inactive),21.5 µM (inactive),15.5 µM (inactive),20.2 µM (inactive),35.2 µM (inactive),23.6 µM (inactive),12.1 µM (inactive),24.4 µM (inactive),–,30.7 µM (inactive),8.71 µM (inactive),44.6 µM (inactive),–,22.3 µM (inactive),17.8 µM (inactive),17.7 µM (inactive)
C#CCOC(=O)C(N)CCSC (stereo unspecified),> 100 µM (inactive),> 100 µM (inactive),> 100 µM (inactive),> 100 µM (inactive),> 100 µM (inactive),–,> 100 µM (inactive),> 100 µM (inactive),> 100 µM (inactive),> 100 µM (inactive),> 100 µM (inactive),> 100 µM (inactive),> 100 µM (inactive),> 100 µM (inactive),> 100 µM (inactive),> 100 µM (inactive),> 100 µM (inactive),–,–
CC1CCCC2=C1C(c1ccc(Cl)cc1)n1c(s/c(=C\c3ccc(Cl)cc3)c1=O)=N2 (stereo unspecified),> 100 µM (inactive),–,> 100 µM (inactive),–,> 100 µM (inactive),> 100 µM (inactive),> 100 µM (inactive),> 100 µM (inactive),–,> 100 µM (inactive),> 100 µM (inactive),> 100 µM (inactive),> 100 µM (inactive),> 100 µM (inactive),–,–,> 100 µM (inactive),–,–
O=C(Nc1nnc(-c2ccc(Cl)cc2)o1)C(SC(=S)N1CCOCC1)c1ccccc1 (stereo unspecified),16.1 µM (inactive),5.69 µM (inactive),–,35 µM (inactive),8.22 µM (inactive),11.6 µM (inactive),22.3 µM (inactive),13.7 µM (inactive),20.9 µM (inactive),–,7.94 µM (inactive),23.7 µM (inactive),19.7 µM (inactive),–,13.1 µM (inactive),9.38 µM (inactive),21.7 µM (inactive),–,6.44 µM (inactive)
Cc1cc(C)cc(Nc2nnc3n2S(=O)(=O)c2cc(C)c(Cl)cc2S3)c1,8.09 µM (inactive),4.17 µM (inactive),3.81 µM (inactive),1.87 µM (inactive),5.61 µM (inactive),3.01 µM (inactive),3.77 µM (inactive),4.72 µM (inactive),2.96 µM (inactive),5.65 µM (inactive),3.44 µM (inactive),10.3 µM (inactive),3.97 µM (inactive),–,7.03 µM (inactive),4.27 µM (inactive),5.69 µM (inactive),4.8 µM (inactive),4.29 µM (inactive)
O=C(Cn1nnc(-c2ccccc2)n1)N/N=C/c1cn(Cc2ccc(Cl)cc2Cl)c2ccccc12,> 100 µM (inactive),39.6 µM (inactive),31.8 µM (inactive),–,> 100 µM (inactive),> 100 µM (inactive),> 100 µM (inactive),> 100 µM (inactive),> 100 µM (inactive),> 100 µM (inactive),> 100 µM (inactive),> 100 µM (inactive),> 100 µM (inactive),> 100 µM (inactive),63.2 µM (inactive),> 100 µM (inactive),47.2 µM (inactive),–,> 100 µM (inactive)
N#CC1(N2CCCC2)CCC2(CC1)OCCO2,> 100 µM (inactive),> 100 µM (inactive),> 100 µM (inactive),> 100 µM (inactive),> 100 µM (inactive),> 100 µM (inactive),–,> 10 µM (inactive),> 100 µM (inactive),> 100 µM (inactive),> 100 µM (inactive),–,> 100 µM (inactive),–,> 100 µM (inactive),> 100 µM (inactive),–,> 100 µM (inactive),> 100 µM (inactive)
Cc1nc2c(=S)[nH]ncc2[nH]1,> 100 µM (inactive),> 100 µM (inactive),–,94.8 µM (inactive),> 100 µM (inactive),> 100 µM (inactive),> 100 µM (inactive),> 100 µM (inactive),> 100 µM (inactive),> 100 µM (inactive),> 100 µM (inactive),–,> 100 µM (inactive),> 100 µM (inactive),> 100 µM (inactive),> 100 µM (inactive),> 100 µM (inactive),> 100 µM (inactive),–
O=C(c1ccccc1)c1c(C(F)(F)F)[n+]([O-])c2ccccc2[n+]1[O-],2.58 µM (inactive),0.205 µM (active),0.995 µM (active),2 µM (inactive),0.951 µM (active),0.209 µM (active),0.652 µM (active),1.18 µM (inactive),1.43 µM (inactive),1.68 µM (inactive),0.291 µM (active),1.73 µM (inactive),0.543 µM (active),–,1.36 µM (inactive),0.343 µM (active),0.396 µM (active),1.25 µM (inactive),0.855 µM (active)
COC1=CC(c2ccc(Br)[nH]2)=N/C1=C/NCC(C)C,1.98 µM (inactive),1.39 µM (inactive),2.26 µM (inactive),1.75 µM (inactive),2.21 µM (inactive),2.65 µM (inactive),1.09 µM (active),1.24 µM (inactive),1.58 µM (inactive),1.98 µM (inactive),–,0.475 µM (active),2.01 µM (inactive),–,1.6 µM (inactive),1.62 µM (inactive),–,1.34 µM (inactive),1.62 µM (inactive)
CO[C@H]1C=C[C@]23c4cc5c(cc4CN(CC2O)[C@@H]3C1)OCO5 (stereo partly specified),3.3 µM (inactive),0.179 µM (active),2.17 µM (inactive),2.15 µM (inactive),3.3 µM (inactive),2.04 µM (inactive),–,2.58 µM (inactive),4.49 µM (inactive),2.18 µM (inactive),2.18 µM (inactive),0.668 µM (active),3.08 µM (inactive),3.93 µM (inactive),0.375 µM (active),1.9 µM (inactive),1.56 µM (inactive),2.58 µM (inactive),1.53 µM (inactive)
CC(C)(C)OC(=O)C1/C(=C/CBr)CN1C(=O)OC(C)(C)C (stereo unspecified),16.6 µM (inactive),2.66 µM (inactive),4.85 µM (inactive),18 µM (inactive),12.6 µM (inactive),2.73 µM (inactive),3.76 µM (inactive),2.56 µM (inactive),10.5 µM (inactive),15.3 µM (inactive),3.24 µM (inactive),–,16.9 µM (inactive),14.7 µM (inactive),15.9 µM (inactive),14.7 µM (inactive),–,16.9 µM (inactive),16.7 µM (inactive)
